These results are taken from US10335400B2, “Treatment of tauopathies with mGluR5 antagonists” (priority 2014, dated 2019).

One assay deals with PP2A. Kind of assay: PP2A activity (phosphatase ELISA) in rat brain slices. It counts as cell-based. Particulars: 30 min pretreatment, BMAA 1 mM 2 h, rat brain slices. How it is done: (§1) Male Wistar rats (Charles River Laboratories), 2-3 months old, were anesthetized by i.p. injection with 50 mg/kg Nembutal. The animals were decapitated when deeply anesthetized. The brains were removed immediately and cooled in ice-cold (4° C.) oxygenated artificial cerebrospinal fluid (aCSF) consisting of 126 mM NaCl, 3.5 mM KCl, 1.2 mM NaH2PO4, 1.3 mM MgCl2, 2 mM CaCl2, 11 mM D(+) glucose, and 25 mM NaHCO3 (pH 7.4) for 7-8 min. Each brain then was divided sagittally, and 400-μm-thick coronal slices were made with a Camden Vibraslicer (WP, Inc.). The slices were transferred into a chamber containing the oxygenated aCSF and were incubated at 33° C. for 2 h in the presence or absence of 1 mM, β-N ? methylamino-L-alanine (BMAA) dissolved in 10 mM NaHCO3 (Sigma). The oxygenation of the aCSF was carried out by bubbling the solution with a mixture of 95% O2 and 5% CO2 during the entire procedure. At the end of incubation, the brain slices were homogenized with homogenizing buffer [50 mM Tris·HCl (pH 7.4), 8.5% (wt/vol) sucrose, 2 mM EDTA, 2 mM EGTA, 10 mM (3-mercaptoethanol, 5 mM benzamidine, 0.5 mM 4-(2-Aminoethyl) benzenesulfonyl fluoride hydrochloride (AEBSF), 4 μg/mL pepstatin A, and 10 μg/mL each of aprotinin and leupepin] at a ratio of 9.0 mL buffer/1.0 g tissue slices. The homogenates were divided into two parts. One part was centrifuged at 16,000×g for 10 min, and the resulting supernatant was used to assay protein phosphatase 2A (PP2A) activity. Into the other half, an equal volume of phosphatase-inhibitor mixture (20 mM 3-glycerophosphate, 2 mM Na3VO4, and 100 mM NaF) was added immediately, and the samples were used for Western blots.
In general terms: In an ELISA, binding on a coated surface is turned into a signal by an enzyme label.

The subject of the next assay is tau. In words: Tau phosphorylation (Western blots) in metabolically active rat brain slices. It counts as cell-based. Particulars: rat brain slices; for BMAA-induced tau hyperphosphorylation at the 12E8 site: 30 min preincubation. How it is done: as §1
Protein was fractionated by 10% SDS/PAGE, transferred to PVDF membrane, and then blocked with 5% skim milk for 1 h at room temperature. The membrane was probed with anti-IPP2A (5G6, 1:1, 500) (7), anti-I2P2A (10E7, 1:1, 600) (7), anti-tau ˜92e; 1:5,000) (8), anti-tau (R134d; 1:5 000) (9), anti-tau pSer^262/^356 (12E8; 1:500) (10, anti-tau pSer^199, anti-tau pThr^205, anti-tau pThr^212, and pSer^396 (1:1,000) (Biosource), anti-GAPDH (1:2,000) (Santa Cruz Biotechnology), anti-PP2Ac (1:10 000) (BD Transduction Lab), anti pY^307-PP2A and anti-DML^309-PP2A (1:1,000) (Millipore), anti-GSK-3(α/β), anti-pS^9-GSK-3 β, anti-ERK1/2, anti-pT^202/Y^204-ERK1/2, anti-MEK1/2, anti-p9^17/221-MEK1/2, anti-CAMKII, anti-pT^286-CAMKII, anti-p70 S6 kinase, anti-pT^389-p70 S6 kinase, anti-SAPK/JNK, and anti-pT^183/Y^185-SAPK/JNK (1:1,000) (Cell Signaling Technology). The membrane then was incubated with HRP-conjugated secondary antibody (Jackson ImmunoResearch). The protein bands were detected with the enhanced chemiluminescence reagents (Thermo Scientific). Band intensity was measured by Multi-Gauge V3 software (Fuji Photo Film).
A general note: In western blotting, separated proteins are transferred to a membrane and probed.

A further assay has as its target T1, mGluR5-PP2A complex (Mus musculus, UniProt Q3UVX5).
T1 construct: endogenous in cells; host or cells: mouse primary hippocampal neuronal cultures
Kind of assay: Coimmunoprecipitation of PP2Ac with mGluR5 in primary neurons. It counts as cell-based. How it is done: Mouse hippocampal cell proteins were prepared with low-stringency lysis buffer [50 mM Hepes (pH 7.4), 10% (vol/vol) glycerol, 1.5 mM MgCl2, 5 mM NaF, 1 mM Na3VO4, 1 mM EDTA, 1 mM EGTA, 1% Nonidet P-40, 5 mM AEBSF, 10 μg/mL aprotinin, leupeptin, pepstatin] and were homogenized by several freeze-thaw cycles followed by water bath sonication. The homogenate was centrifuged at 14,000×g at 4° C. for 15 min. For transfection experiments with vector (DsRed) and with DsRed-PP2A catalytic subunit (PP2Ac), primary neurons were processed in a similar manner. The supernatants then were used for immunoprecipitation with mouse anti-PP2A (1D6; Millipore) followed by incubation with protein G-Sepharose (Thermo Scientific). The Western blots of immunoprecipitates were probed with rabbit anti-mGluR5 (Millipore) and rabbit anti-PP2Ac [R123d] (FIG. 55).

The test system of the next assay is ERK1/2. Kind of assay: ERK1/2 phosphorylation in primary neurons treated with okadaic acid. Particulars: okadaic acid 10-100 nM, 30 min. It counts as cell-based, mouse. How it is done: FIGS. 11A and 11B are images showing the inhibition of PP2A induces ERK1/2 phosphorylation. Primary neurons were treated with the PP2A inhibitor okadaic acid (OA, 10-100 nM) for 30 min and were processed for ERK1/2 analysis. (A) Representative Western blots showing phosphorylation of ERK1/2. (B) Quantitative analysis of pERK1/2 after normalization with total ERK1/2. Data are expressed as mean±SEM. *P<0.05; **P<0.01.
Protein was fractionated by 10% SDS/PAGE, transferred to PVDF membrane, and then blocked with 5% skim milk for 1 h at room temperature. […] The protein bands were detected with the enhanced chemiluminescence reagents (Thermo Scientific). Band intensity was measured by Multi-Gauge V3 software (Fuji Photo Film).

The structures appear in SMILES notation. Entries after “also recorded” stand apart in the source; their conditions may differ.

T1 sequence (Q3UVX5 19-1203, one chain of several): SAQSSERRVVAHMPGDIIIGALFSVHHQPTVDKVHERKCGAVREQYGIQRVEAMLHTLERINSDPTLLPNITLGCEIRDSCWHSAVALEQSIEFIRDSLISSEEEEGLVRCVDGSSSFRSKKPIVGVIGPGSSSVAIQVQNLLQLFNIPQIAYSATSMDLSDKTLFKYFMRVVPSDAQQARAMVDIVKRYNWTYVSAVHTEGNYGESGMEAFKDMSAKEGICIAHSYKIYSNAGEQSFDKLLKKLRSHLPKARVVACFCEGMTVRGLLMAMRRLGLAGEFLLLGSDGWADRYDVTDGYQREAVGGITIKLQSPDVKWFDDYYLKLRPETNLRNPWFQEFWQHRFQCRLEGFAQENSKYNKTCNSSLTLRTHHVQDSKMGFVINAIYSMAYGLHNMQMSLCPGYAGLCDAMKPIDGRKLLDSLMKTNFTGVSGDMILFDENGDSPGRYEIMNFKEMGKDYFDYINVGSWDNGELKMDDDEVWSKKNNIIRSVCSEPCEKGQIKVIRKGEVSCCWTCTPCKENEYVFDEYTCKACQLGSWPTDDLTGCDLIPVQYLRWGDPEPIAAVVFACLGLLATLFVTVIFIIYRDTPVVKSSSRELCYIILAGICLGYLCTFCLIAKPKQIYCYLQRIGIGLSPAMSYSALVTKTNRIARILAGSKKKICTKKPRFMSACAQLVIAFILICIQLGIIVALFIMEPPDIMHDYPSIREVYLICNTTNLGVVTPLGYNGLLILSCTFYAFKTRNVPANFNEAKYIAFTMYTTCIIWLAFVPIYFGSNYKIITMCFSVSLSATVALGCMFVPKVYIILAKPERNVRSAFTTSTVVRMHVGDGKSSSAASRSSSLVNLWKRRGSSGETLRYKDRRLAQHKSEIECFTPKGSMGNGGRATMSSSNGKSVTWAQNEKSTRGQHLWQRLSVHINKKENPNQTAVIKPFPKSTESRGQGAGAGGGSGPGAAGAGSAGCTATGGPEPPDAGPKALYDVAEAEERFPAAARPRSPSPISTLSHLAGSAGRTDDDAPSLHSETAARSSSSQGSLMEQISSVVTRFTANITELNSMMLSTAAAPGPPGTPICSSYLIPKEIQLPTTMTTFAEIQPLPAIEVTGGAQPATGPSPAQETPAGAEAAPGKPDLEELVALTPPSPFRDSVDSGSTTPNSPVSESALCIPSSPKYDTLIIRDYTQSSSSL

For the compound `N#Cc1cc2c(cc1[N+](=O)[O-])=NC(=O)C(=O)N=2` [CNQX, 6-cyano-7-nitroquinoxaline-2,3-dione], the “BMAA induced decrease in PP2A activity blocked by pretreatment” value in the assay with PP2A (CNQX 20 μM) is “not”. For the same compound, the “BMAA-induced tau hyperphosphorylation at the 12E8 site” value in the assay with tau (CNQX 20 μM alone, BMAA 1 mM 2 h) is “no significant change”.

Regarding `CCCCCCCCCCCCC/C=C/[C@@H](O)[C@@H](N)CO` [DES, D-Erythro-S], in the assay on tau (DES 15 nM pretreatment, BMAA 1 mM 2 h), the BMAA-induced tau hyperphosphorylation entry is listed as “blocked; also recorded: entirely prevented”.

As for `Cc1cccc(C#Cc2ccccc2)n1` [MPEP, 2-methyl-6-(phenylethynyl)pyridine], the “BMAA induced decrease in PP2A activity blocked by pretreatment” value with PP2A (MPEP 50 μM) is “blocked completely”. Moreover, the “BMAA-induced dissociation of PP2A from mGluR5” value on mGluR5-PP2A complex is recorded as “completely blocked”. Also, the “BMAA-induced tau hyperphosphorylation at the 12E8 site” value with tau (50 μM MPEP, BMAA 1 mM 2 h) is reported as “significantly blocked”.

Consider `CC(C)(C)n1nc(-c2ccc(Cl)cc2)c2c(N)ncnc21` [PP2], for which, in the assay with tau (PP2 10 μM, 30 min before BMAA), the BMAA-induced tau hyperphosphorylation result is “blocked; also recorded: significantly attenuated”.

Consider `C=C1[C@@H](O)[C@@H]2O[C@]3(CC[C@H](/C=C/[C@@H](C)[C@@H]4CC(C)=C[C@@]5(O[C@H](C[C@@](C)(O)C(=O)O)CC[C@H]5O)O4)O3)CC[C@H]2O[C@@H]1[C@@H](O)C[C@H](C)[C@H]1O[C@@]2(CCCCO2)CC[C@H]1C` [okadaic acid], for which, in the assay with ERK1/2, the ERK1/2 phosphorylation result was “up-regulates”.
